Test results: article PMC9967085, “Properly Substituted Benzimidazoles as a New Promising Class of Nicotinate Phosphoribosyltransferase (NAPRT) Modulators” (Pharmaceuticals, 2023)
Where two headings read alike, the source gives them in different places.

What was measured:
NAPRT [1] = target: NAPRT; design: method as in PMID 4255930; settings: cited from earlier work
NAPRT [2] = target: NAPRT; design: method as in PMID 4333776; settings: cited from earlier work
NAPRT [3] = test system: NAPRT; design: method as in PMID 35890155; settings: cited from earlier work
NAPRT [4] = target: NAPRT; design: method as in PMID 35890147; settings: cited from earlier work
Human recombinant NAPRT = target: T1, Human recombinant NAPRT (Homo sapiens, UniProt Q6XQN6); assay: HPLC-based NAPRT activity screening assay; format: biochemical
T1 construct: made in house
T1 sequence (Q6XQN6 1-538): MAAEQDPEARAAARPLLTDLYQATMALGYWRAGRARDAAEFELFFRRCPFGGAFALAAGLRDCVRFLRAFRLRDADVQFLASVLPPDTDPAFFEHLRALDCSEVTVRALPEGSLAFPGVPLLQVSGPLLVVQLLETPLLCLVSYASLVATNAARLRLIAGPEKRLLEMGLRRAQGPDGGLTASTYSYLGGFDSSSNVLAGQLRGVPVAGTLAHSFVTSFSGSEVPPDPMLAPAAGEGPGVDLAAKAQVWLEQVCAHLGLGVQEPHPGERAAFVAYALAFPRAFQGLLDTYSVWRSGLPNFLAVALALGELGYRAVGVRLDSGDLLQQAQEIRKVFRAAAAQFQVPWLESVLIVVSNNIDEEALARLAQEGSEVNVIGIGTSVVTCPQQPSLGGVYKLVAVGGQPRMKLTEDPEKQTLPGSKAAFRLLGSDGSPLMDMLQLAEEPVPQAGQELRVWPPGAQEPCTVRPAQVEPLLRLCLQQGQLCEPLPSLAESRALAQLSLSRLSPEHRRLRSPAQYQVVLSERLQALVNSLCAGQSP

[5] = 1 mM compound, 0.2 mM NA, 0.4 mM PRPP
[6] = 1 mM compound, 0.2 mM NA, 0.4 mM PRPP, read-out: % Inhibition
[7] = 1 mM compound, 0.2 mM NA, 0.4 mM PRPP, read-out: % Inhibition (not active class)

Compound	inhibition at 1000 µM (Human recombinant NAPRT; [6])	inhibition at 1000 µM (Human recombinant NAPRT; [7])	-Fold Stimulation (Human recombinant NAPRT; [5])	-Fold Stimulation (not active class) (Human recombinant NAPRT; [5])	further results
O=C(O)c1cccnc1F [Compound 2]	–	–	–	–	Ki (NAPRT [1]): 280 µM
CCCCC1C(=O)N(c2ccccc2)N(c2ccccc2)C1=O [Compound 4, phenylbutazone]	–	–	–	–	Ki (NAPRT [2]): 160 µM
O=C(O)c1ccccc1Nc1cccc(C(F)(F)F)c1 [Compound 5, flufenamic acid]	–	–	–	–	Ki (NAPRT [2]): 46 µM
Cc1cccc(Nc2ccccc2C(=O)O)c1C [Compound 6, mefenamic acid]	–	–	–	–	Ki (NAPRT [2]): 76 µM
O=C(O)c1ccccc1O [Compound 7, salicylic acid]	–	–	–	–	Ki (NAPRT [2]): 160 µM
CC(C)(C)C(=O)OCCCn1cc(CCCN2C[C@@H](O)[C@@H](O)[C@@H]2NC(=O)c2ccccc2)nn1 [Compound 8]	–	–	–	–	IC50 (NAPRT [3]): 327 µM
CC(C)(C)C(=O)OCCCn1cc(CCCN2C[C@@H](O)[C@@H](O)[C@@H]2Cn2cc(-c3ccccc3)nn2)nn1 [Compound 9]	–	–	–	–	IC50 (NAPRT [3]): 242 µM
NCc1cc2c(cc1Cl)OCO2 [Compound 10]	–	–	–	–	IC50 (NAPRT [3]): 160 µM
O=C(Cn1c(=O)sc2ccccc21)Nc1cccc(C(=O)O)c1 [Compound 11]	–	–	–	–	IC50 (NAPRT [3]): 232 µM
CC(Oc1ccccc1Cl)C(=O)Nc1cccc(C(=O)O)c1 (stereo not drawn) [Compound 12]	–	–	–	–	IC50 (NAPRT [3]): 265 µM
O=C(N[C@@H](C(=O)c1ccccc1)n1cnccc1=O)c1ccccc1 [Compound 13]	–	–	–	–	Ki (NAPRT [4]): 2300 µM
O=C(NC(Sc1ccncn1)C(=O)c1ccccc1)c1ccccc1 (stereo not drawn) [Compound 14]	–	–	–	–	Ki (NAPRT [4]): 89 µM
O=C(O)c1cnccc1O [Compound 15]	–	–	–	–	Ki (NAPRT [4]): 308 µM
O=C(O)c1cnsn1 [Compound 16]	–	–	–	–	Ki (NAPRT [4]): 295 µM

Further lines, with some results ahead:

inhibition at 1000 µM (Human recombinant NAPRT; [6])	inhibition at 1000 µM (Human recombinant NAPRT; [7])	-Fold Stimulation (Human recombinant NAPRT; [5])	Compound	-Fold Stimulation (not active class) (Human recombinant NAPRT; [5])	further results
30%	–	–	CC(=O)NCc1cccc(CNc2ccc3c(c2)nc(C)n3C)c1 [Compound 17, N-(3-(((1,2-dimethyl-1H-benzo[d]imidazol-5-yl)amino)methyl)benzyl)acetamide]	-^b (Not active, it is referred to compounds showing less than 10% inhibition or less than 1.10-fold stimulation)	% Inhibition (Human recombinant NAPRT; [5]): 30.3 ± 6.0%
0.6 ± 0.9%	< 10%	–	Cc1nc2cc(NCc3cccc(CN)c3)ccc2n1C [Compound 19, N-(3-(aminomethyl)benzyl)-1,2-dimethyl-1H-benzo[d]imidazol-5-amine]	- (Not active, it is referred to compounds showing less than 10% inhibition or less than 1.10-fold stimulation)	Effect on NAPRT catalytic activity (in words) (Human recombinant NAPRT): inactive
–	< 10%	1.25 ± 0.05 fold	Cc1nc2cc(NCc3cccc(N)c3)ccc2n1C [Compound 20, N-(3-aminobenzyl)-1,2-dimethyl-1H-benzo[d]imidazol-5-amine]	–	Effect on NAPRT catalytic activity (in words) (Human recombinant NAPRT): NAPRT activators
0%	< 10%	0 fold	CC(=O)NCc1cccc(CN(C)c2ccc3c(c2)nc(C)n3C)c1 [Compound 21, N-(3-(((1,2-dimethyl-1H-benzo[d]imidazol-5-yl)(methyl)amino)methyl)benzyl) acetamide]	- (Not active, it is referred to compounds showing less than 10% inhibition or less than 1.10-fold stimulation)	–
5 ± 1.2%	< 10%	–	CC(=O)Nc1cccc(CN(C)c2ccc3c(c2)nc(C)n3C)c1 [Compound 22, N-(3-(((1,2-dimethyl-1H-benzo[d]imidazol-5-yl)(methyl)amino)methyl)phenyl) acetamide]	- (Not active, it is referred to compounds showing less than 10% inhibition or less than 1.10-fold stimulation)	–
–	< 10%	1.14 ± 0.05 fold	Cc1nc2cc(N(C)Cc3cccc(CN)c3)ccc2n1C [Compound 23, N-(3-(aminomethyl)benzyl)-N,1,2-trimethyl-1H-benzo[d]imidazol-5-amine]	–	Effect on NAPRT catalytic activity (in words) (Human recombinant NAPRT): NAPRT activators
–	< 10%	1.44 ± 0.04 fold	Cc1nc2cc(N(C)Cc3cccc(N)c3)ccc2n1C [Compound 24, N-(3-aminobenzyl)-N,1,2-trimethyl-1H-benzo[d]imidazol-5-amine]	–	Effect on NAPRT catalytic activity (in words) (Human recombinant NAPRT): NAPRT activators
13 ± 3.1%	–	–	CC(=O)NCc1ccc(CNc2ccc3c(c2)nc(C)n3C)cc1 [Compound 25, N-(4-(((1,2-dimethyl-1H-benzo[d]imidazol-5-yl)amino)methyl)benzyl)acetamide]	- (Not active, it is referred to compounds showing less than 10% inhibition or less than 1.10-fold stimulation)	Effect on NAPRT catalytic activity (in words) (Human recombinant NAPRT): inhibit NAPRT activity
1.3%	< 10%	–	CC(=O)Nc1ccc(CNc2ccc3c(c2)nc(C)n3C)cc1 [Compound 26, N-(4-(((1,2-dimethyl-1H-benzo[d]imidazol-5-yl)amino)methyl)phenyl)acetamide]	- (Not active, it is referred to compounds showing less than 10% inhibition or less than 1.10-fold stimulation)	–
1.9 ± 0.9%	< 10%	–	Cc1nc2cc(NCc3ccc(CN)cc3)ccc2n1C [Compound 27, N-(4-(aminomethyl)benzyl)-1,2-dimethyl-1H-benzo[d]imidazol-5-amine]	- (Not active, it is referred to compounds showing less than 10% inhibition or less than 1.10-fold stimulation)	–
0%	< 10%	0 fold	Cc1nc2cc(NCc3ccc(N)cc3)ccc2n1C [Compound 28, N-(4-aminobenzyl)-1,2-dimethyl-1H-benzo[d]imidazol-5-amine]	- (Not active, it is referred to compounds showing less than 10% inhibition or less than 1.10-fold stimulation)	–
12 ± 2.2%	–	–	CC(=O)NCc1ccc(CN(C)c2ccc3c(c2)nc(C)n3C)cc1 [Compound 29, N-(4-(((1,2-dimethyl-1H-benzo[d]imidazol-5-yl)(methyl)amino)methyl)benzyl) acetamide]	- (Not active, it is referred to compounds showing less than 10% inhibition or less than 1.10-fold stimulation)	Effect on NAPRT catalytic activity (in words) (Human recombinant NAPRT): inhibit NAPRT activity
0%	< 10%	0 fold	CC(=O)Nc1ccc(CN(C)c2ccc3c(c2)nc(C)n3C)cc1 [Compound 30, N-(4-(((1,2-dimethyl-1H-benzo[d]imidazol-5-yl)(methyl)amino)methyl)phenyl) acetamide]	- (Not active, it is referred to compounds showing less than 10% inhibition or less than 1.10-fold stimulation)	–
–	< 10%	1.58 ± 0.07 fold	Cc1nc2cc(N(C)Cc3ccc(CN)cc3)ccc2n1C [Compound 31, N-(4-(aminomethyl)benzyl)-N,1,2-trimethyl-1H-benzo[d]imidazol-5-amine]	–	Effect on NAPRT catalytic activity (in words) (Human recombinant NAPRT): NAPRT activators
–	–	1.08 ± 0.03 fold	N-(3-(((1,2-dimethyl-1H-benzo[d]imidazol-5-yl)(methyl)amino)methyl)benzyl) acetamide [Compound 33]	- (Not active, it is referred to compounds showing less than 10% inhibition or less than 1.10-fold stimulation)	% Inhibition (not active class) (Human recombinant NAPRT; [5]): - (Not active, it is referred to compounds showing less than 10% inhibition or less than 1.10-fold stimulation)
–	–	1.47 ± 0.07 fold	N-(3-(((1,2-dimethyl-1H-benzo[d]imidazol-5-yl)amino)methyl)benzyl)acetamide [Compound 32]	–	Effect on NAPRT catalytic activity (in words) (Human recombinant NAPRT): NAPRT activators; % Inhibition (not active class) (Human recombinant NAPRT; [5]): - (Not active, it is referred to compounds showing less than 10% inhibition or less than 1.10-fold stimulation)
